The text below walks through data of patent US20250327793A1, “METHODS OF IDENTIFYING COMPOUNDS THAT MODULATE LAUNDRY MALODOR, MOLDY MALODOR, OR SWEAT MALODOR” (Firmenich SA, priority 2017, published 2025).

The target of one assay is Olfr93 (Mus musculus, UniProt B9EI77). Kind of assay: 1-octen-3-ol concentration-dependent activation of Olfr93: OR-dependent cAMP accumulation in a cell-based assay (functional dose-response). The conditions noted are these: agonist, mouse Olfr93 (SEQ ID NO: 63), N-terminal FLAG/Rho/Lucy tags, HEK 293T cells, Gαolf, FIG. 6. An excerpt:
(§1) The detection method pertains to OR-dependent accumulation of cAMP in said cells, as a result of OR activation by 1-octen-3-ol.
(§2) In a further embodiment, to complete the deorphanization process, the candidate OR genes are further expressed in vitro for confirmation of activity against the compounds used to isolate the olfactory sensory neurons and other structurally-related compounds of interest. […]
(§3) Neurons that were activated by DMTS were further isolated for full transcriptome analysis to identify the responsive odorant receptor. […] Amplified cDNA was then used to generate an Illumina cDNA library for Next-Generation-Sequencing and the generation of 100 base pair single read sequences. […]
On the technique in general: Cyclic AMP is a second messenger, typically raised through Gs and lowered through Gi signalling.

The target of a further assay is Olfr398 (Mus musculus, UniProt Q8VFY0). Kind of assay: 1-octen-3-ol concentration-dependent activation of Olfr398: OR-dependent cAMP accumulation in a cell-based assay (functional dose-response). To be noted: agonist, mouse Olfr398 (SEQ ID NO: 65), N-terminal FLAG/Rho/Lucy tags, HEK 293T cells, Gαolf, FIG. 6.
Sequence of Olfr398 (Q8VFY0 1-314): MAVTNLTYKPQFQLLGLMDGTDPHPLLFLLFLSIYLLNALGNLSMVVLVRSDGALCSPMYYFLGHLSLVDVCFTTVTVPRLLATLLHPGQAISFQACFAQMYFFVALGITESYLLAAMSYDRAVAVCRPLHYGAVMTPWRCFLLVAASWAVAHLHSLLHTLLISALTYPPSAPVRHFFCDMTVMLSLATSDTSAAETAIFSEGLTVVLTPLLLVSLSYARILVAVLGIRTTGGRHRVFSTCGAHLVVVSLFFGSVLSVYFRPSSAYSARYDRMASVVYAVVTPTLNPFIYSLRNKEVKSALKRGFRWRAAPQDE
Another assay has as its target Olfr120 (Mus musculus, UniProt Q7TRJ4). Kind of assay: 1-octen-3-ol concentration-dependent activation of Olfr120: OR-dependent cAMP accumulation in a cell-based assay (functional dose-response). The conditions noted are these: agonist, mouse Olfr120 (SEQ ID NO: 67), N-terminal FLAG/Rho/Lucy tags, HEK 293T cells, Gαolf, FIG. 6.
Excerpt: as §1, §2, §3

For the next assay, the target named is Olfr1364 (Mus musculus, UniProt Q5SZS9). Kind of assay: 1-octen-3-ol concentration-dependent activation of Olfr1364: OR-dependent cAMP accumulation in a cell-based assay (functional dose-response). The conditions noted are these: agonist, mouse Olfr1364 (SEQ ID NO: 69), N-terminal FLAG/Rho/Lucy tags, HEK 293T cells, Gαolf, FIG. 6.
Sequence of Olfr1364 (Q5SZS9 9-314): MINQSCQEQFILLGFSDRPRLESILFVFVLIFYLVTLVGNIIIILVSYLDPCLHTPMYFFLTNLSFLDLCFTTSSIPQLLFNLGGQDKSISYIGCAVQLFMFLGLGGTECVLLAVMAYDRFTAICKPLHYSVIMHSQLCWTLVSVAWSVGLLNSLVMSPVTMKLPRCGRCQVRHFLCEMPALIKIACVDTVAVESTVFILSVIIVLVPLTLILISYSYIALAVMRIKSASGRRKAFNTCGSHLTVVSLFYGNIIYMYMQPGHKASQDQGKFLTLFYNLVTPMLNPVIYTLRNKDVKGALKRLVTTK
Excerpt: as §1, §2, §3

Assay [1] addresses Olfr1126 (Mus musculus, UniProt Q7TR49). Kind of assay: 3-hydroxy-3-methyl-hexanoic acid concentration-dependent activation of Olfr1126: OR-dependent cAMP accumulation in a cell-based assay (functional dose-response). To be noted: agonist, mouse Olfr1126 (SEQ ID NO: 46), N-terminal FLAG/Rho/Lucy tags, HEK 293T cells, Gαolf, FIG. 9.
Excerpt: (§4) The detection method pertains to OR-dependent accumulation of cAMP in said cells, as a result of OR activation by 3-hydroxy-3-methyl-hexanoic acid.
as §2, §3

Assay [2] concerns Olfr1126. Kind of assay: Cell-based OR activation assay (cAMP accumulation). The arrangement: species or system mouse. The conditions noted are these: FIG. 9; OR-dependent accumulation of cAMP.
Excerpt: as §4
(§5) In a further embodiment, to complete the deorphanization process, the candidate OR genes are further expressed in vitro for confirmation of activity against the compounds used to isolate the olfactory sensory neurons and other structurally-related compounds of interest. The mouse receptors identified from isolated olfactory neurons that respond to geonol, DMTS, 1-octen-3-ol, butyric acid, 3-methyl-2-hexenoic acid, 3-hydroxy-3-methyl-hexanoic acid or transpirol are modified at their N-terminus with short polypeptide sequences (e.g., FLAG® (SEQ ID NO: 48), Rho (SEQ ID NO: 50; 20 first amino acids of the bovine rhodopsin receptor), and/or Lucy (SEQ ID NO: 52; cleavable leucine-rich signal peptide sequence) tags), transiently expressed in HEK 293T cells, and stimulated separately with geonol, DMTS, 1-octen-3-ol, butyric acid, 3-methyl-2-hexenoic acid, 3-hydroxy-3-methyl-hexanoic acid or transpirol to confirm their identity as bona fide geonol, dimethyl trisulfide (DMTS), 1-octen-3-ol, butyric acid, 3-methyl-2-hexenoic acid, 3-hydroxy-3-methyl-hexanoic acid or transpirol receptors. In a further embodiment, an RTP1 gene can also be expressed in the cell lines whether through activation of the endogenous RTP1 gene or through transformation. […]

A further assay has as its target T1, OR51I2 (Homo sapiens, UniProt Q9H344).
T1 construct: expressed in transfected cells; host or cells: HEK293T
Kind of assay: 3-methyl-2-hexenoic acid concentration-dependent activation of OR51I2: OR-dependent cAMP accumulation in a cell-based assay (functional dose-response). To be noted: agonist, human OR51I2 (SEQ ID NO: 20), HEK293T cells expressing Golf, FIG. 8.
Excerpt: (§6) The detection method pertains to OR-dependent accumulation of cAMP in said cells, as a result of OR activation by 3-methyl-2-hexenoic acid.
as §2
(§7) In the second method, a panel of odorant receptors comprising the 400 putatively functional human receptor repertoire were transfected into a cultured human HEK293T cell line described in WO2014/210585 expressing Human olfactory G-protein alpha subunit (Golf—SEQ. ID No. 49) and coupled to a cyclicAMP reporter. Said panel of in vitro odorant receptors were exposed to MCSs and the level of cAMP signal was measured for each receptor. […]

For assay [3], the target named is Olfr641 (Mus musculus, UniProt Q8VGX6). Kind of assay: 3-methyl-2-hexenoic acid concentration-dependent activation of Olfr641: OR-dependent cAMP accumulation in a cell-based assay (functional dose-response). To be noted: agonist, mouse Olfr641 (SEQ ID NO: 34), N-terminal FLAG/Rho/Lucy tags, HEK 293T cells, Gαolf, FIG. 8.
Sequence of Olfr641 (Mus musculus, UniProt Q8VGX6) (Q8VGX6 1-312): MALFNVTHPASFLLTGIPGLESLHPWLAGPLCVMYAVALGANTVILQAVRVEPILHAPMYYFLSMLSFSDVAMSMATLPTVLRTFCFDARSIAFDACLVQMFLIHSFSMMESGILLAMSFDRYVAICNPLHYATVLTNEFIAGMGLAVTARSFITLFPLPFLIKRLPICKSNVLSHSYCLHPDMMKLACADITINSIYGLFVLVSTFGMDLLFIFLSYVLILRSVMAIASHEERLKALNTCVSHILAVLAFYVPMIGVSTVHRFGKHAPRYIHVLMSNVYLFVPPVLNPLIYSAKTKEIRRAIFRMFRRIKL
Excerpt: as §6, §2, §3

Assay [4] addresses Olfr263 (Mus musculus, UniProt Q7TQT8). Kind of assay: Concentration-dependent activation of Olfr263: OR-dependent cAMP accumulation in a cell-based assay (functional dose-response). The conditions noted are these: mouse Olfr263 (SEQ ID NO: 22), N-terminal FLAG/Rho/Lucy tags, HEK 293T cells, Gαolf.
Excerpt: (§8) The detection method pertains to OR-dependent accumulation of cAMP in said cells, as a result of OR activation by transpirol.
as §6, §2, §3

Assay [5] relates to Olfr263. Kind of assay: Cell-based OR activation assay (cAMP accumulation). The conditions noted are these: FIG. 7 and 8; OR-dependent accumulation of cAMP. Set-up: species or system mouse.
Excerpt: as §8, §6
as §5, with “receptors.” for “receptors. In a further embodiment, an RTP1 gene can also be expressed in the cell lines whether through activation of the endogenous RTP1 gene or through transformation.”

A further assay addresses T2, OR5112 (Homo sapiens, UniProt Q9H344).
T2 construct: expressed in transfected cells; host or cells: HEK293T expressing human Golf
Kind of assay: Cell-based OR activation assay (cAMP accumulation). To be noted: FIG. 8; OR-dependent accumulation of cAMP.
Excerpt: as §6, §2, §7

The test system of assay [6] is Olfr641. Kind of assay: Cell-based OR activation assay (cAMP accumulation). The arrangement: species or system mouse. The conditions noted are these: FIG. 8; OR-dependent accumulation of cAMP.
Excerpt: as §6, §5

For assay [7], the target named is T3, OR2W1 (Homo sapiens, UniProt Q9Y3N9, M81V).
T3 sequence (Q9Y3N9 1-320 M81V): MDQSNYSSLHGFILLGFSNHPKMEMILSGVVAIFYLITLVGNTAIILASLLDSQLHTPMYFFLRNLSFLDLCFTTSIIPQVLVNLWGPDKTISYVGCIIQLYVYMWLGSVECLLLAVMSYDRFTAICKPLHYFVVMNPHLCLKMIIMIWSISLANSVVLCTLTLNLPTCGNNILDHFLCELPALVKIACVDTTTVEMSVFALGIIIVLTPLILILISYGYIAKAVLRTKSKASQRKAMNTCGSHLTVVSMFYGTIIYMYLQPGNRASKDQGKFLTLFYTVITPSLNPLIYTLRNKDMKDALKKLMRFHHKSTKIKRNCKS
Kind of assay: Concentration-dependent activation of OR2W1: OR-dependent cAMP accumulation in a cell-based assay (functional dose-response). The arrangement: expressed in transfected cells; host or cells: HEK293T. To be noted: human OR2W1 (SEQ ID NO: 2), HEK293T cells expressing Golf.
Excerpt: as §8, §6, §2, §7

Assay [8] concerns the target T3, OR2W1. Kind of assay: Cell-based OR activation assay (cAMP accumulation). The arrangement: expressed in transfected cells; host or cells: HEK293T expressing human Golf. To be noted: FIG. 7 and 8; OR-dependent accumulation of cAMP.
Excerpt: as §8, §6, §2, §7

The next assay has as its target Olfr96 (Mus musculus, UniProt Q0VBG2). Kind of assay: Geonol concentration-dependent activation of Olfr96: OR-dependent cAMP accumulation in a cell-based assay (functional dose-response). To be noted: agonist, mouse Olfr96 (SEQ ID NO: 28), N-terminal FLAG/Rho/Lucy tags, HEK 293T cells, Gαolf, FIG. 5.
Excerpt: (§9) The detection method pertains to OR-dependent accumulation of cAMP in said cells, as a result of OR activation by geonol.
as §2, §3

The target of the next assay is Olfr339 (Mus musculus, UniProt Q8VGK8). Kind of assay: Geonol concentration-dependent activation of Olfr339: OR-dependent cAMP accumulation in a cell-based assay (functional dose-response). The conditions noted are these: agonist, mouse Olfr339 (SEQ ID NO: 44), N-terminal FLAG/Rho/Lucy tags, HEK 293T cells, Gαolf, FIG. 5.
Sequence of Olfr339 (Q8VGK8 1-309): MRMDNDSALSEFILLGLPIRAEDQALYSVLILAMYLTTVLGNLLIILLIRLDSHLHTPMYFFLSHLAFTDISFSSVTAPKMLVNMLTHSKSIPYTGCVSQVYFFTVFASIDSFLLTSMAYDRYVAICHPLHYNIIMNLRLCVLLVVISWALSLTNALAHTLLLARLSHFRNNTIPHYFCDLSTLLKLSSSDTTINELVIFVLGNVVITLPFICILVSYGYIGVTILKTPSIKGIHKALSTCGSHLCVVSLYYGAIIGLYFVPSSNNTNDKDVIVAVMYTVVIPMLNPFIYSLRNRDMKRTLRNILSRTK
Excerpt: as §9, §2, §3

A further assay concerns the target Olfr1487 (Mus musculus, UniProt Q8VFQ6). Kind of assay: Geonol concentration-dependent activation of Olfr1487: OR-dependent cAMP accumulation in a cell-based assay (functional dose-response). The conditions noted are these: agonist, mouse Olfr1487 (SEQ ID NO: 42), N-terminal FLAG/Rho/Lucy tags, HEK 293T cells, Gαolf, FIG. 5.
Excerpt: as §9, §2, §3

Another assay deals with Olfr1322 (Mus musculus, UniProt Q7TQW3). Kind of assay: Geonol concentration-dependent activation of Olfr1322: OR-dependent cAMP accumulation in a cell-based assay (functional dose-response). To be noted: agonist, mouse Olfr1322 (SEQ ID NO: 73), N-terminal FLAG/Rho/Lucy tags, HEK 293T cells, Gαolf, FIG. 5.
Sequence of Olfr1322 (Q7TQW3 1-310): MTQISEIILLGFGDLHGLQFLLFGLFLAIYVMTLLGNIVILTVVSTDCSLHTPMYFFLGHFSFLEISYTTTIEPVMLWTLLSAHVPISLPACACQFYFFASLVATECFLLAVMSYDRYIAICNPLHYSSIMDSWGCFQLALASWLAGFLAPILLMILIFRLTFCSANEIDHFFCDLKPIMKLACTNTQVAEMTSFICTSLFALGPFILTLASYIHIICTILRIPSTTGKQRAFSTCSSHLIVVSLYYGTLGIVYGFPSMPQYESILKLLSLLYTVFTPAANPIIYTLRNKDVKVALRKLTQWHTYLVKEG
Excerpt: as §9, §2, §3

The next assay deals with OR11A1 (Homo sapiens, UniProt Q9GZK7). Kind of assay: Geonol concentration-dependent activation of OR11A1: OR-dependent cAMP accumulation in a cell-based assay (functional dose-response). Set-up: expressed in transfected cells; host or cells: HEK293T. The conditions noted are these: agonist, human OR11A1 (SEQ ID NO: 12), HEK293T cells expressing Golf, FIG. 5.
Sequence of OR11A1 (Q9GZK7 whole entry): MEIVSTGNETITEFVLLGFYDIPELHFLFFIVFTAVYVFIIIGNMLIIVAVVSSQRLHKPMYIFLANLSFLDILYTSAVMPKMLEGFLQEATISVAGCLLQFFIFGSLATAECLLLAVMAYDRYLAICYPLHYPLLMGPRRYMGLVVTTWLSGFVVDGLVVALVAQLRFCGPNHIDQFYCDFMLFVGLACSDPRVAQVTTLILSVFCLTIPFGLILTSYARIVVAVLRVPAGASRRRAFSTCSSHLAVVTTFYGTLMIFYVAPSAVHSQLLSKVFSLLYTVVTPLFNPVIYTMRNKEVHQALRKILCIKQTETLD
Excerpt: as §9, §2, §7

Assay [9] concerns the target Olfr46 (Mus musculus, UniProt Q2VPD7). Kind of assay: Transpirol concentration-dependent activation of Olfr46: OR-dependent cAMP accumulation in a cell-based assay (functional dose-response). To be noted: agonist, mouse Olfr46 (SEQ ID NO: 75), N-terminal FLAG/Rho/Lucy tags, HEK 293T cells, Gαolf, FIG. 7.
Excerpt: as §8, §2, §3

For assay [10], the system named is Olfr46. Kind of assay: Cell-based OR activation assay (cAMP accumulation). The arrangement: species or system mouse. The conditions noted are these: FIG. 7; OR-dependent accumulation of cAMP.
Excerpt: as §8, §5

Setting [11] is: agonist 3-methyl-2-hexenoic acid, FIG. 8.

The structures appear in SMILES notation.

Sequence of Olfr263 (Mus musculus, UniProt Q7TQT8) (Q7TQT8 1-317): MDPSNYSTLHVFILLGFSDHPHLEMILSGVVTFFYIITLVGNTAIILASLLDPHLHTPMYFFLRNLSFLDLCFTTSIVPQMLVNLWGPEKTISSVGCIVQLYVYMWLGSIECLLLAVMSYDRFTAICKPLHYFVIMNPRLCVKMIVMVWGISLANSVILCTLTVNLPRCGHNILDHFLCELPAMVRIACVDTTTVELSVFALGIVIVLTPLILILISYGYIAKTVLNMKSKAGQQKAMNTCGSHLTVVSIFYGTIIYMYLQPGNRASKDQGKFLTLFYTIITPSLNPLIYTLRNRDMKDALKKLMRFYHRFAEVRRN
Sequence of Olfr1126 (Mus musculus, UniProt Q7TR49) (Q7TR49 1-314): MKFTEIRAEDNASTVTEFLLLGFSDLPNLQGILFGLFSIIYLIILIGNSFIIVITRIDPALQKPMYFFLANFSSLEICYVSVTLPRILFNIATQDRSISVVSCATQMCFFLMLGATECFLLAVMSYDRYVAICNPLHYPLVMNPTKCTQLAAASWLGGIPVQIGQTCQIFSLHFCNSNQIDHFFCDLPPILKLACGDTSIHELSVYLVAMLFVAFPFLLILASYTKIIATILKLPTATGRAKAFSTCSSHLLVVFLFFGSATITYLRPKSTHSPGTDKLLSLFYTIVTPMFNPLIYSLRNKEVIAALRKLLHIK
Sequence of Olfr120 (Q7TRJ4 1-321): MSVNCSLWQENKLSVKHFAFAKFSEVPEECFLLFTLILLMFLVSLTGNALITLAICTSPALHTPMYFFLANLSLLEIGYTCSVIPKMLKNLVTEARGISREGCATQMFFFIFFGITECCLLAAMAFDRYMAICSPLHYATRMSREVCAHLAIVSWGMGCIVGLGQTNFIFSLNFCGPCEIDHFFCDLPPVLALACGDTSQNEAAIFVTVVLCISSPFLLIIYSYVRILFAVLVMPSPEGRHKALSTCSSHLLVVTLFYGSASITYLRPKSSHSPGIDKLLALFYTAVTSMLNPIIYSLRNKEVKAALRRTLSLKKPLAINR
Sequence of Olfr1487 (Q8VFQ6 1-315): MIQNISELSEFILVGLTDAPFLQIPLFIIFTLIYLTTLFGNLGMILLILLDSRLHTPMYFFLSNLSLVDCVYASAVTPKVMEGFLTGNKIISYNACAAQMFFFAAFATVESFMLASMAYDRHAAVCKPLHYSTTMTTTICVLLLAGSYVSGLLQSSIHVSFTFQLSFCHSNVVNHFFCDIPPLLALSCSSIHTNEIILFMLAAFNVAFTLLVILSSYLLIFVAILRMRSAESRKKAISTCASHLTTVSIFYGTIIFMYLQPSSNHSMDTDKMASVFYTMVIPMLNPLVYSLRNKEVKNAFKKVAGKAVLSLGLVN
Sequence of Olfr96 (Q0VBG2 1-313): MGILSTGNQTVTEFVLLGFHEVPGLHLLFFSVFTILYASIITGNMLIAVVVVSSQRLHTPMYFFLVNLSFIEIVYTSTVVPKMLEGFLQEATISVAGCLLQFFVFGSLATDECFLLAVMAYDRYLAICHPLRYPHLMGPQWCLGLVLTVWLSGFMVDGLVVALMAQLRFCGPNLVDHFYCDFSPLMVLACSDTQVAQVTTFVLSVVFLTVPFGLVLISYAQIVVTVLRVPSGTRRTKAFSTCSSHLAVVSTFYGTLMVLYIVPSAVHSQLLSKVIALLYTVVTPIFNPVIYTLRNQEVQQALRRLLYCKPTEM
Sequence of Olfr46 (Mus musculus, UniProt Q2VPD7) (Q2VPD7 1-310): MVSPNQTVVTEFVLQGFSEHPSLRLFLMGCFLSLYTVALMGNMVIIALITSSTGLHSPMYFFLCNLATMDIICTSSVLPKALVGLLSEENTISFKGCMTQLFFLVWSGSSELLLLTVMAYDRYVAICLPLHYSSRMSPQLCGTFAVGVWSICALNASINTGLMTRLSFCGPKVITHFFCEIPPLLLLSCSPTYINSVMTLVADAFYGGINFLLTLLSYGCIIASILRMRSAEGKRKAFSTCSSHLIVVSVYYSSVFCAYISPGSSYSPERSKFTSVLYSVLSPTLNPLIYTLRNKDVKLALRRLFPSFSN
Sequence of Olfr93 (B9EI77 1-312): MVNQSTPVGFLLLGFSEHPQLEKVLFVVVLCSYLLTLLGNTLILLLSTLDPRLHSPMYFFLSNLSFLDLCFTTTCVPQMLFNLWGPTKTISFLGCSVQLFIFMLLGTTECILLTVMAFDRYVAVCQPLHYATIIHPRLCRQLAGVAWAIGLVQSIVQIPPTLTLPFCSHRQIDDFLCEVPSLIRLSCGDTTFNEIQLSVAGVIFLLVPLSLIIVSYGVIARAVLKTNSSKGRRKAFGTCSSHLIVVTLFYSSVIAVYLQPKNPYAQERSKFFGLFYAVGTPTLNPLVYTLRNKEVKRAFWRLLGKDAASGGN
T2 sequence (Q9H344 whole entry): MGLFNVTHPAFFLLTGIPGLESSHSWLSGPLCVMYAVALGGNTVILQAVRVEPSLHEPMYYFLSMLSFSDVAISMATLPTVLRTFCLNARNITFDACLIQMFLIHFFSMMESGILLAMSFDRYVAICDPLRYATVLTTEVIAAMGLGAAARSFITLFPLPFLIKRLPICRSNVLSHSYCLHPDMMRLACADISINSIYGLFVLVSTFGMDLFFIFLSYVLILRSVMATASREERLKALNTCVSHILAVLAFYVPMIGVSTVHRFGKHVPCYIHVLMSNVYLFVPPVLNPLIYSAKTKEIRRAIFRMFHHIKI
T1 sequence (Q9H344 whole entry): as above

As a reminder, the EC50 is the concentration at which the effect is half-maximal. High values mean lower potency in that assay, low ones higher potency in that assay. Consider `C=CC(O)CCCCC` (stereo not shown) [1-Octen-3-ol, 1-octen-3-ol], for which the EC50 at Olfr93 worked out at 0.69 µM; at Olfr398, 11.4 µM; on Olfr120, 26 µM; at Olfr1364, 113 µM.
In the case of `CCCC(C)(O)CC(=O)O` (stereo not shown) [3-hydroxy-3-methyl-hexanoic acid], the response at Olfr1126 [1] was half-maximal at 40.3 µM (EC50). The “activation of Olfr1126” value in the assay on Olfr1126 [2] is “concentration-dependent and specific activation”.
Take `CCCC(C)=CC(=O)O` [3-methyl-2-hexenoic acid]: the EC50 is 13.9 µM on OR51I2, 1.75 µM at Olfr641 [3], 183 µM on Olfr263 [4] (setting [11]) and 214 µM at OR2W1 [7] (setting [11]). In the assay with Olfr263 [5], the “activation of Olfr263” value is “concentration-dependent and specific activation”. Also, the “activation of OR5112” value at OR5112 was “concentration-dependent and specific activation”. Besides, in the assay with Olfr641 [6], the “activation of Olfr641” value was “concentration-dependent and specific activation”. Moreover, the “activation of OR2W1” value on OR2W1 [8] was “concentration-dependent and specific activation”.
Regarding `CC1CCCC2(C)CCCCC12O` [Geonol, (4S,4aS,8aR)-4,8a-Dimethyl-1,2,3,4,5,6,7,-octahydronaphthalen-4a-ol], the EC50 worked out at 0.0168 µM on Olfr96; 1.28 µM on Olfr339; 3.58 µM at Olfr1487; 37.5 µM on Olfr1322; 2.8 µM on OR11A1.
For the compound `CCCC(C)(S)CCO` (stereo not shown) [Transpirol, 3-methyl-3-sulphanylhexanol], the EC50 at Olfr263 [4] (agonist transpirol, FIG. 7) came to 2.3 µM; on Olfr46 [9], 170 µM; at OR2W1 [7] (agonist transpirol, FIG. 7), 3.1 µM.
Turning to `CCCC(C)(S)CCO` (stereo not shown) [transpirol, 3-methyl-3-sulfanylhexanol], the “activation of Olfr263” value in the assay with Olfr263 [5] was “concentration-dependent and specific activation”. For the same compound, the “activation of Olfr46” value in the assay on Olfr46 [10] was “concentration-dependent and specific activation”. The “activation of OR2W1” value on OR2W1 [8] was “concentration-dependent and specific activation”.
